This is an account of results in patent US20230203098A1, “HUMAN TRANSFERRIN RECEPTOR BINDING PEPTIDE” (priority 2020, published 2023).

Where a SMILES comes first, the peptide text is derived from it. Bridges are numbered along the chain shown (N, C = ends). [ ]: non-standard residue; d: D form. PEG12 = NCCOCCOCCOCCOCCOCCOCCOCCOCCOCCOCCOCCOCCC(=O)O; NMeY = CN[C@@H](Cc1ccc(O)cc1)C(=O)O; NMeF = CN[C@@H](Cc1ccccc1)C(=O)O; Ahp(2) = CCCCC[C@H](N)C(=O)O

In this experiment the target is transferrin receptor (hTfR) (Homo sapiens, UniProt P02786). The experiment can be described thus: Intermolecular interaction evaluation test between transferrin receptor (hTfR) and peptide by surface plasmon resonance (SPR). It is filed as binding. The following applies: SPR; hTfR No. 894 variants with PEG12c linker (Table 2); read-out: KD. On the procedure: For each of the various synthesized peptides, the intermolecular interaction of the peptide with the transferrin receptor (hTfR) was tested by surface plasmon resonance (SPR) according to the following method. The specific test method is as follows.
transferrin receptor (hTfR), sequence (P02786 whole entry): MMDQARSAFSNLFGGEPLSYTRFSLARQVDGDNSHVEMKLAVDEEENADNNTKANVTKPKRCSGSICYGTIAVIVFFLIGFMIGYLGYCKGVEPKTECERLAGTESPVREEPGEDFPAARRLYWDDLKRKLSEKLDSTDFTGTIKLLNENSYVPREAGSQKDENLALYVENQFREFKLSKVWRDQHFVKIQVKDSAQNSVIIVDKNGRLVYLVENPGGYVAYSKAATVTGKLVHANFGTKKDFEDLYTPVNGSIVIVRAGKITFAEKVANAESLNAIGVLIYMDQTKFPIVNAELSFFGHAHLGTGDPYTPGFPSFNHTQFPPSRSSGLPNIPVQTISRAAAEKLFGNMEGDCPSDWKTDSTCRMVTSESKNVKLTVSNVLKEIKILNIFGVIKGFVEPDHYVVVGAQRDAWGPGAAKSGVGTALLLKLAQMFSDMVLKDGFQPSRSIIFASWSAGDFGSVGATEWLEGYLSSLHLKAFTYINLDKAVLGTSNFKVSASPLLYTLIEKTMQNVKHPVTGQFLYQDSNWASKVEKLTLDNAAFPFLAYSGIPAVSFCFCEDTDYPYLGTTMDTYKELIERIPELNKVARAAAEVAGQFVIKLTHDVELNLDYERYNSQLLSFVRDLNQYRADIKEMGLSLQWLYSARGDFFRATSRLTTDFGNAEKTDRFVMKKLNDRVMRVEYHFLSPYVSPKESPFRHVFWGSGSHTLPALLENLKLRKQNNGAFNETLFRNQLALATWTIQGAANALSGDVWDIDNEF
An NTA sensor chip (Global Life Sciences Technologies Japan) was inserted in a Biacore T200 (Global Life Sciences Technologies Japan) and a prime operation was performed 3 times with a running buffer: 10 mM HEPES pH 8.0 (Nacalai Tesque), 150 mM NaCl (Nacalai Tesque), 0.05% Tween 20 (Nacalai Tesque), 0.1% BSA (Sigma-Aldrich), 1.0% DMSO (FUJIFILM Wako Pure Chemical) to create an Equilibration state at a flow rate of 30 µL/min. After reacting with 350 mM EDTA solution for 60 seconds at a flow rate of 10 µL/min then reacting with 0.5 mM NiCl2 solution (Kishida Chemical) for 60 seconds at a flow rate of 10 µL/min, the NTA sensor chip was washed with 3 mM EDTA solution (Nacalai Tesque) for 60 seconds at a flow rate of 10 µL/min. After mixing 50 µL each of 60 mM EDC solution (Global Life Sciences Technologies Japan) and 650 mM NHS solution (Global Life Sciences Technologies Japan), the mixture was reacted for 420 seconds at a flow rate of 10 µL/min. By diluting with the running buffer, 150 µL of 3.2 µM hTfR solution was prepared and used for reaction for 600 seconds at a flow rate of 10 µL/min, thereby immobilizing hTfR on the NTA sensor chip. After immobilization, capping was performed by reacting with 1.0 M ethanolamine aqueous solution (Global Life Sciences Technologies Japan) for 420 seconds at a flow rate of 10 µL/min. A peptide dissolution liquid prepared to 10 mM in the DMSO solution was diluted with the running buffer to a final concentration of 10 µM so as to become the peptide dissolution liquid, then peptide solutions of 100 nM, 50 nM, 25 nM, 10 nM and 5 nM were prepared. Kinetics of the peptide to hTfR was acquired by SPR measurement using the above-mentioned samples. Single-cycle kinetics was used as a kinetic evaluation model and curve fitting was performed using Biacore T200 Evaluation Software Version 3.0 (Global Life Sciences Technologies Japan). An obtained sensorgram was subjected to curve fitting using the least-squares method, and the binding of the peptide to hTfR was evaluated by obtaining KD values. […] A chemical structure of hTfR No. 894 is as follows.
The variant peptides were synthesized according to Example 1 unless otherwise stated in Example 9 or 10. The linker-added peptides were synthesized according to Example 1, except that Fmoc-NH-SAL-PEG resin (Watanabe Chemical Industries) was used as a resin for the peptide synthesis when the linker was PEG. The peptide, to which a peptide, a fatty acid, PEG, or a conjugate thereof is added as a linker, was also synthesized according to Example 1, unless otherwise stated in Example 9 or 10.
A general note: In SPR one partner is held on a chip, and binding of the other changes the refractive index at the surface.
As to `CC[C@H](C)[C@@H]1NC(=O)[C@H](Cc2ccc(O)cc2)NC(=O)[C@H](Cc2ccc(O)cc2)NC(=O)[C@H](CC(N)=O)NC(=O)[C@H](Cc2c[nH]c3ccccc23)NC(=O)[C@H](C(C)C)NC(=O)[C@H](Cc2ccccc2)N(C)C(=O)[C@H](C(C)C)NC(=O)[C@H](C)NC(=O)CSC[C@@H](C(=O)NCCOCCOCCOCCOCCOCCOCCOCCOCCOCCOCCOCCOCCC(N)=O)NC(=O)[C@H](Cc2ccc(O)cc2)N(C)C(=O)[C@H](C)NC(=O)[C@H](CCCNC(=N)N)NC(=O)[C@H](CCCNC(=N)N)NC(=O)[C@H]([C@@H](C)CC)NC1=O` [compound 123], the Kd – broadly, a measure of binding affinity in units of concentration – was 1 to 100 nM. For the compound `CC[C@H](C)[C@@H]1NC(=O)[C@H](Cc2ccc(O)cc2)NC(=O)[C@H](Cc2ccc(O)cc2)NC(=O)[C@H](CC(N)=O)NC(=O)[C@H](Cc2c[nH]c3ccccc23)NC(=O)[C@H](C(C)C)NC(=O)[C@H](Cc2ccccc2)N(C)C(=O)[C@H](C(C)C)NC(=O)[C@H](C)NC(=O)CSC[C@@H](C(=O)NCCOCCOCCOCCOCCOCCOCCOCCOCCOCCOCCOCCOCCC(N)=O)NC(=O)[C@H](CCC(=O)O)NC(=O)[C@H](Cc2ccc(O)cc2)NC(=O)[C@H](CCCNC(=N)N)NC(=O)[C@H](CCCNC(=N)N)NC(=O)[C@H]([C@@H](C)CC)NC1=O` [compound 124], the equilibrium dissociation constant (Kd) fell in the range of 100 to 1000 nM.

With `CC[C@H](C)[C@@H]1NC(=O)[C@H](Cc2ccc(O)cc2)NC(=O)[C@H](Cc2c[nH]c3ccccc23)NC(=O)[C@H](CC(N)=O)NC(=O)[C@H](Cc2c[nH]c3ccccc23)NC(=O)[C@H](C(C)C)NC(=O)[C@H](Cc2ccccc2)N(C)C(=O)[C@H](C(C)C)NC(=O)[C@H](C)NC(=O)CSC[C@@H](C(=O)NCCOCCOCCOCCOCCOCCOCCOCCOCCOCCOCCOCCOCCC(N)=O)NC(=O)[C@H](Cc2ccc(O)cc2)N(C)C(=O)[C@H](Cc2ccc(O)cc2)NC(=O)[C@H](CCCNC(=N)N)NC(=O)[C@H](CCCNC(=N)N)NC(=O)[C@H]([C@@H](C)CC)NC1=O` [compound 125] ({CH2CO}-AV[NMeF]VWNWYIIRRY[NMeY]C[PEG12]-NH2; thioether N-15), the Kd lay within 1 to 100 nM. The value for `CC[C@H](C)[C@@H]1NC(=O)[C@H](Cc2ccc(O)cc2)NC(=O)[C@H](Cc2ccc(O)cc2)NC(=O)[C@H](CC(N)=O)NC(=O)[C@H](Cc2c[nH]c3ccccc23)NC(=O)[C@H](C(C)C)NC(=O)[C@H](Cc2ccccc2)N(C)C(=O)[C@H](C(C)C)NC(=O)[C@H](C)NC(=O)CSC[C@@H](C(=O)NCCOCCOCCOCCOCCOCCOCCOCCOCCOCCOCCOCCOCCC(N)=O)NC(=O)[C@H](CCCNC(=N)N)NC(=O)[C@H](Cc2ccc(O)cc2)NC(=O)[C@H](CCCNC(=N)N)NC(=O)[C@H](CCCNC(=N)N)NC(=O)[C@H]([C@@H](C)CC)NC1=O` [compound 127] was 1 to 100 nM. The result for `CC[C@H](C)[C@@H]1NC(=O)[C@H](Cc2ccc(O)cc2)NC(=O)[C@H](Cc2ccc(O)cc2)NC(=O)[C@H](CC(N)=O)NC(=O)[C@H](CCc2ccccc2)NC(=O)[C@H](C(C)C)NC(=O)[C@H](Cc2ccccc2)N(C)C(=O)[C@H](C(C)C)NC(=O)[C@H](C)NC(=O)CSC[C@@H](C(=O)NCCOCCOCCOCCOCCOCCOCCOCCOCCOCCOCCOCCOCCC(N)=O)NC(=O)[C@H](Cc2ccc(O)cc2)N(C)C(=O)[C@H](Cc2ccc(O)cc2)NC(=O)[C@H](CCCNC(=N)N)NC(=O)[C@H](CCCNC(=N)N)NC(=O)[C@H]([C@@H](C)CC)NC1=O` [compound 128] reads 1 to 100 nM; that for `CCCCC[C@@H]1NC(=O)[C@H](C)NC(=O)CSC[C@@H](C(=O)NCCOCCOCCOCCOCCOCCOCCOCCOCCOCCOCCOCCOCCC(N)=O)NC(=O)[C@H](Cc2ccc(O)cc2)N(C)C(=O)[C@H](Cc2ccc(O)cc2)NC(=O)[C@H](CCCNC(=N)N)NC(=O)[C@H](CCCNC(=N)N)NC(=O)[C@H]([C@@H](C)CC)NC(=O)[C@H]([C@@H](C)CC)NC(=O)[C@H](Cc2ccc(O)cc2)NC(=O)[C@H](Cc2ccc(O)cc2)NC(=O)[C@H](CC(N)=O)NC(=O)[C@H](Cc2c[nH]c3ccccc23)NC(=O)[C@H](C(C)C)NC(=O)[C@H](Cc2ccccc2)N(C)C1=O` [compound 130] ({CH2CO}-A[Ahp(2)][NMeF]VWNYYIIRRY[NMeY]C[PEG12]-NH2; thioether N-15), 1 to 100 nM.

On to `CC[C@H](C)[C@@H]1NC(=O)[C@H](Cc2ccc(O)cc2)NC(=O)[C@H](Cc2ccc(O)cc2)NC(=O)[C@H](CC(N)=O)NC(=O)[C@H](Cc2c[nH]c3ccccc23)NC(=O)[C@H](C(C)C)NC(=O)[C@H](Cc2ccccc2)N(C)C(=O)[C@H](Cc2ccccc2)NC(=O)[C@H](C)NC(=O)CSC[C@@H](C(=O)NCCOCCOCCOCCOCCOCCOCCOCCOCCOCCOCCOCCOCCC(N)=O)NC(=O)[C@H](Cc2ccc(O)cc2)N(C)C(=O)[C@H](Cc2ccc(O)cc2)NC(=O)[C@H](CCCNC(=N)N)NC(=O)[C@H](CCCNC(=N)N)NC(=O)[C@H]([C@@H](C)CC)NC1=O` [compound 133] ({CH2CO}-AF[NMeF]VWNYYIIRRY[NMeY]C[PEG12]-NH2; thioether N-15), for which the equilibrium dissociation constant (Kd) fell in the range of 1 to 100 nM. The value for `CC[C@H](C)[C@@H]1NC(=O)[C@H](Cc2ccc(O)cc2)NC(=O)[C@H](Cc2ccccc2)NC(=O)[C@H](CC(N)=O)NC(=O)[C@H](Cc2c[nH]c3ccccc23)NC(=O)[C@H](C(C)C)NC(=O)[C@H](Cc2ccccc2)N(C)C(=O)[C@H](C(C)C)NC(=O)[C@H](C)NC(=O)CSC[C@@H](C(=O)NCCOCCOCCOCCOCCOCCOCCOCCOCCOCCOCCOCCOCCC(N)=O)NC(=O)[C@H](Cc2ccc(O)cc2)N(C)C(=O)[C@H](Cc2ccc(O)cc2)NC(=O)[C@H](CCCNC(=N)N)NC(=O)[C@H](CCCNC(=N)N)NC(=O)[C@H]([C@@H](C)CC)NC1=O` [compound 135] ({CH2CO}-AV[NMeF]VWNFYIIRRY[NMeY]C[PEG12]-NH2; thioether N-15) was 1 to 100 nM. For `CC[C@H](C)[C@@H]1NC(=O)[C@H](Cc2ccc(O)cc2)NC(=O)[C@H](Cc2ccc(O)cc2)NC(=O)[C@H](CC(N)=O)NC(=O)[C@H](Cc2c[nH]c3ccccc23)NC(=O)[C@H](C(C)C)NC(=O)[C@H](Cc2ccc(OC)cc2)N(C)C(=O)[C@H](C(C)C)NC(=O)[C@H](C)NC(=O)CSC[C@@H](C(=O)NCCOCCOCCOCCOCCOCCOCCOCCOCCOCCOCCOCCOCCC(N)=O)NC(=O)[C@H](Cc2ccc(O)cc2)N(C)C(=O)[C@H](Cc2ccc(O)cc2)NC(=O)[C@H](CCCNC(=N)N)NC(=O)[C@H](CCCNC(=N)N)NC(=O)[C@H]([C@@H](C)CC)NC1=O` [compound 136] ({CH2CO}-AV[NMeY](Me)VWNYYIIRRY[NMeY]C[PEG12]-NH2; thioether N-15), the dissociation constant Kd lay in the range of 1 to 100 nM. Regarding `CCCCC[C@@H]1NC(=O)[C@H](Cc2ccc(O)cc2)NC(=O)[C@H](CC(N)=O)NC(=O)[C@H](Cc2c[nH]c3ccccc23)NC(=O)[C@H](C(C)C)NC(=O)[C@H](Cc2ccccc2)N(C)C(=O)[C@H](C(C)C)NC(=O)[C@H](C)NC(=O)CSC[C@@H](C(=O)NCCOCCOCCOCCOCCOCCOCCOCCOCCOCCOCCOCCOCCC(N)=O)NC(=O)[C@H](Cc2ccc(O)cc2)N(C)C(=O)[C@H](Cc2ccc(O)cc2)NC(=O)[C@H](CCCNC(=N)N)NC(=O)[C@H](CCCNC(=N)N)NC(=O)[C@H]([C@@H](C)CC)NC(=O)[C@H]([C@@H](C)CC)NC1=O` [compound 139] ({CH2CO}-AV[NMeF]VWNY[Ahp(2)]IIRRY[NMeY]C[PEG12]-NH2; thioether N-15), the Kd fell in the range of 1 to 100 nM. The value for `CC[C@H](C)[C@@H]1NC(=O)[C@H](Cc2ccc(O)cc2)NC(=O)[C@H](C)NC(=O)[C@H](CC(N)=O)NC(=O)[C@H](Cc2c[nH]c3ccccc23)NC(=O)[C@H](C(C)C)NC(=O)[C@H](Cc2ccccc2)N(C)C(=O)[C@H](C(C)C)NC(=O)[C@H](C)NC(=O)CSC[C@@H](C(=O)NCCOCCOCCOCCOCCOCCOCCOCCOCCOCCOCCOCCOCCC(N)=O)NC(=O)[C@H](Cc2ccc(O)cc2)N(C)C(=O)[C@H](Cc2ccc(O)cc2)NC(=O)[C@H](CCCNC(=N)N)NC(=O)[C@H](CCCNC(=N)N)NC(=O)[C@H]([C@@H](C)CC)NC1=O` [compound 140] ({CH2CO}-AV[NMeF]VWNAYIIRRY[NMeY]C[PEG12]-NH2; thioether N-15) was 1 to 100 nM.
